These results are taken from patent publication US9566341B1, “Compounds including Cox inhibitor moiety and enhanced delivery of active drugs using same” (University of Kentucky Research Foundation, priority 2011, dated 2017).

Values joined by “and” are separate entries in the source; they are usually repeats but may differ in a detail not shown here. Equal values may be shown once. Where a name gives a salt, the structure may show the parent alone. Where only a bound is given, the exact number is not on record here.

Data set [1] can be described thus: In vitro diffusion study across microneedle-treated full thickness Yucatan miniature pig skin. The data set is classed as in vitro ADME. To be noted: for flux enhancement of salt form over free base form: NTX flux, p<0.005; for flux of naltrexone from the hydrochloride salt form: donor in 0.3M acetate buffer pH 5.0, MN treated skin, n=4; for naltrexol flux: 10% PG containing saturated donor formulation. As for the experimental part: For all in vitro experiments female Yucatan minipig skin (6 months old) were used. Skin sections were obtained by removing the subcutaneous fatty tissue by scalpel dissection, and were stored at −20° C. A PermeGear flow-through (In-Line, Riegelsville, Pa., USA) diffusion cell system was used for the skin permeation studies.
The skin was pierced 20 times with an array containing 5 MN (i.e., to make a total of 100 individual and non-over lapping piercings) before mounting the skin in the diffusion cell for the treatment group. The insertion of MN into skin was carried out manually by applying gentle finger pressure followed by instantaneous removal. MN's were distributed evenly within the 0.95 cm^2 area of skin and could easily be visualized after each 5 MN insertion, as to prevent reapplication in the same area. Single MN array of 5 were used simply out of ease for the experimental procedure. If any damage to an MN section was observed the section was replaced. […] Untreated skin samples were simply placed in the diffusion cells. Diffusion cells were kept at 32° C. using a circulating water bath. Data were collected using skin from a single pig 3-4 cells for the MN treated formulations.
The physiological receiver solution was water adjusted to pH 7.4 containing 20% ethanol, and the flow rate was adjusted to 1.5 ml/h. Each cell was charged with 0.25 ml of the donor in the donor compartment of the chamber. The diffusion cells were covered with a stopper to prevent evaporation. Samples were collected from the receiver compartment in six-hour increments over 48 h or for the length of the treatment. All samples were stored at 4° C. until analyzed by HPLC.
The in vitro permeation experiments were carried out to determine the transdermal flux of the parent drugs and the codrug, permeation coefficients as well as the concentration of the drug molecules in the skin at the end of the study. For all in vitro experiments Yucatan miniature pig (YP) skin was used. Full thickness skin was obtained by removing the subcutaneous fatty tissue by scalpel dissection, and stored at −20° C. A PermeGear flow-through (In-Line, Riegelsville, Pa., USA) diffusion cell system was used for the skin permeation studies. […] The skin was pierced 20 times with a 5 MN array (making 100 individual and non-over lapping piercings) before mounting the skin in the diffusion cell. MN pores were distributed evenly within the 0.95 cm^2 area of skin. Untreated skin samples were mounted directly onto the diffusion cells. The setup was maintained at 32° C. using a circulating water bath. Data collected using a minimum of 3-4 cells per treatment group. The receiver solution was water alkalified to pH 7.4 containing 20% ethanol at 37° C. Gentamycin sulfate (50 mg/L) was added to the receiver for 7 day studies as an antibacterial agent. The receiver flow rate was adjusted to 1.5 ml/h to maintain skin conditions. Each cell was charged with 0.25 ml of the donor and the diffusion cells were covered with a stopper to prevent evaporation of formulation. Samples were collected at regular increments over 48 hours or for the length of the treatment. Drug was concentrated 10 fold by evaporating 1 ml of the collected sample under nitrogen and reconstituting in 100 μl of ACN for quantification. All samples were stored at 4° C. until analyzed by HPLC. The skin was removed at the end of the study and the treatment area was diced into small pieces using a scalpel after removing all excess drugs from top of the skin. Drug was extracted out by immersing the skin pieces in ACN overnight in a shaker water bath at 32° C. Samples were injected into the HPLC after appropriate dilution for quantitative analysis. The donor was also removed and quantified at the end of the study by direct injection onto HPLC after suitable dilution using ACN. All data was analyzed using Fick's first law of diffusion. […]

Data set [2] can be described thus: Concentration of saturated donor solution. The settings on record: hydrochloride salt; 0.3M acetate buffer at pH 5.0. The data set is classed as physicochemical. As for the experimental part:
Solubility studies are carried out by equilibrating large excesses of each drug with the solvent studied. The experiments will be done at skin surface temperature (32° C.). To hasten the attainment of equilibrium, each slurry will be continuously shaken or stirred. Samples will be taken, filtered with an appropriate filter for the solvent, measured with respect to volume, and either assayed directly by HPLC or evaporated to dryness and reconstituted for assay. Binding of the compounds to the filter will be checked to eliminate the possibility of drug adsorption on the filter and/or filter casing. All toxic solvents and other chemicals will be handled with caution, and fume hoods will be used when appropriate.
In vitro experiments. The goal of the first set of in vitro experiments was to estimate flux and skin concentration of the base form of the codrug.

Data set [3] concerns hairless guinea pig micropores. The data set is described as follows: In vivo micropore visualization by gentian violet/India ink staining after MN treatment. The settings on record: for time the pores stay open after MN treatment: codrug gel under occlusion, patch changed at 3.5 days. An excerpt:
The patches were removed at predetermined time points and the site was cleaned with sterile gauze. Gentian violet/India ink was applied as the dyeing agent at the MN treated sites and allowed to dry before excess dye was removed with ethanol and gauze. Both the dyes stain the viable epidermis but not the intact SC. […] The donor was removed from the top of the skin at the end of the study and analyzed by direct injection onto HPLC after suitable dilution using ACN.
All animal experiments were approved by the University of Kentucky IACUC. A proof of concept in vivo experiment was carried out. 4% w/w gels were prepared with the hydrochloride salt form of the codrug. Gels were formulated by dissolving 4% codrug salt in PG: buffer at pH 5.0=10:90 and 3.0% hydroxyethylcellulose (HEC) polymer (required to have a gel formulation). Polymer was dissolved over a 30 minute period to obtain a homogenous gel. The solution was stirred until a viscous gel resulted and then left at room temperature for 1½ to 2 hours to remove bubbles and ensure complete polymerization. The gel was saturated with excess solid and therefore was cloudy. MN treated animals were first cleaned topically with isopropyl alcohol, and 50 MN array was applied twice mutually perpendicular to each other to give a total of 100 pores at each site. 0.3 mL gel doses were applied to the dorsal region of the HGP. After application of the gel the skin was occluded with the occlusive patch and biocclusive tape was applied to prevent evaporation of the formulation. The patch was changed with new formulation at 3.5 days such that more than 50% intact codrug was always present in formulation. […] The patches were removed to obtain data at successive 24 h time intervals.
The patches were removed at predetermined time points and the site was cleaned with sterile gauze. Gentian violet/India ink was applied as the dyeing agent at the MN treated sites and allowed to dry before excess dye was removed with ethanol and gauze. Both the dyes stain the viable epidermis but not the intact SC.

Data set [4] in a line: Pharmacokinetic study with codrug HCl salt gel patches after MN treatment. The data set is classed as in vivo, hairless guinea pig. As for the experimental part:
Microneedle treatment at each patch site contained 100 micropores created by a 1 cm^2 50 needle stainless steel array rotated 90° and inserted twice. […] Plasma samples were obtained from a jugular catheter over seven days and analyzed for drug concentration by LC/MS (Methods).
(§1) Hairless IAF guinea pigs (Charles River) weighing 350-650 g were used for these studies. All animal studies were in accordance with the institutional guidelines and approved by the University of Kentucky IACUC. Surgical procedure was performed to canulate the jugular vein. Blood samples (0.3 mL) were drawn from the jugular vein at regular time intervals for the time studied. MN treated animals were first cleaned topically with isopropyl alcohol, and two 50 MN arrays were then manually applied to each dose site. For MN treated GPs, four 0.3 mL gel doses were applied to the dorsal region of the hairless guinea pigs at 4 sites to obtain steady state plasma levels. […] The blood samples were immediately centrifuged at 10,000×g for 3 min; plasma was separated and stored at −70° C. until analysis.
as §1, with “70 g C” for “−70° C.”

A short description of data set [5]: Chemical stability in 0.3M acetate buffer pH 5.0 at 32° C. The data set is classed as physicochemical. An excerpt:
The chemical stability of the prodrugs to hydrolysis and solvolysis at the appropriate temperatures will be determined by measuring concentrations over time in the buffers and solvents used in the solubility and diffusion studies. Chemical degradation rate constants will be important in distinguishing enzymatic degradation from non-enzymatic degradation. Codrug enzymatic metabolism rate constants can also be determined in skin homogenates, to ascertain if the values are useful in the QSPR multiple regression analysis. The kinetics of codrug enzymatic degradation in skin homogenates will be done using abdominal plastic surgery samples. Enzymatic reaction rates will be determined at several different codrug concentrations. The skin is homogenized (Polytron tissue homogenizer and ground glass homogenizer fitted with a glass pestle) in HEPES-buffered Hanks' balanced salt solution and the supernatant is obtained. The enzymatic hydrolysis rates are determined in the homogenate at 37° C. The codrug and its metabolites will be obtained by solid-phase extraction, or another appropriate extraction method. Naltrexone and any other metabolite formed will be assayed by HPLC and expressed as moles of metabolite per minute per milligram of protein. Protein concentrations in the supernatant will be measured by the Bradford method. Controls containing only codrug and HEPES-buffered Hanks' balanced salt solution at 37° C. will also be monitored to determine non-enzymatic hydrolysis.
Chemical and enzymatic stability was determined for the codrugs. For chemical stability studies, the codrug was put in prewarmed 0.3M acetate buffer pH 5.0 after solubilization in <5% ACN, if required, at 32° C. in an incubator. Samples were withdrawn at regular intervals and injected into the HPLC after appropriate dilutions. Enzymatic stability studies are important for estimation of conversion of codrugs in the plasma. […] All stability data was analyzed using pseudo first order kinetics. […]

The conditions of data set [6]: Micromedex 1.0, as fraction; cited from earlier work.
[7] abbreviates: listed as Compound 2U hydrochloride salt.

With `Cl.O=C(Cc1ccccc1Nc1c(Cl)cccc1Cl)Oc1ccc2c3c1O[C@H]1C(=O)CC[C@@]4(O)[C@@H](C2)N(CC2CC2)CC[C@]314` [codrug salt], the entries for the “flux enhancement of salt form over free base form” value in data set [1] and in data set [1] (setting [7]) were 13 fold and “about 13 fold”, respectively. Also, the “flux of naltrexone from the hydrochloride salt form” value in data set [1] is 5.42±1.5 nmol/(cm^2/h) and 5.5 nmol/(cm^2/h); in data set [1] (setting [7]), 5.42±1.5 nmol/(cm^2/h). The “flux at higher concentrations of PG” value in data set [1] (salt form, 25% and 50% PG, saturated donor) is reported as “flux decreased significantly”. Further, the “flux of 10% PG containing formulation versus aqueous formulation” value in data set [1] (salt form, saturated donor, one way ANOVA) was “no significant difference in flux”. Moreover, the “concentration of donor solution” value in data set [2] came out at 39300 µg/mL. The “time the pores stay open after MN treatment” value in data set [3] (setting [7]) and in data set [3] (listed as HCl salt form of the compound) was not above 7 days in each case. Moreover, in data set [4] (4 patches, 400 MN treatments), the “Css estimated from Jss*A=Css*Cl” value was “around 1 ng/ml”. Further, the “intact codrug in plasma samples” value in data set [4] (LC/MS, over seven days) is “not detected”. Also, the “micropore staining with India ink” value in data set [4] (days 1, 4, 5, 6, and 7) was “Significant micropore staining”. In data set [4] (one guinea pig of four), the “time at which pores closed” value was determined as 6 days. Further, the “flux of NTX from the codrug in hairless guinea pig model” value in data set [4] (salt form, 10% PG formulation) is “not high enough to quantify”. Also, the “duration of significant NTX plasma levels” value in data set [4] (three out of the four guinea pigs, four patches, single MN pretreatment) came out at 7 days.
`O=C(Cc1ccccc1Nc1c(Cl)cccc1Cl)OC1CCC2(O)C3Cc4ccc(O)c5c4C2(CCN3CC2CC2)C1O5` (stereo not drawn) [Compound 2B]: in data set [5], the “Chemical stability” value was 56.3 ± 9.5 days. Besides, the naltrexol flux result in data set [1] is given as “approximately 0.29±0.09 nmol/cm^2/h”.
In data set [1], `Oc1ccc2c3c1O[C@H]1[C@H](O)CC[C@@]4(O)[C@@H](C2)N(CC2CC2)CC[C@]314` [NTXOL, 6-β-Naltrexol, reference compound] had a naltrexol flux of 3.07±0.27 nmol/cm^2/h.
One may read the half-life as the time needed for the level to fall by half in the phase considered. A higher half-life goes with slow decline. `O=C(Cc1ccccc1Nc1c(Cl)cccc1Cl)O[C@@H]1CC[C@@]2(O)[C@H]3Cc4ccc(O)c5c4[C@@]2(CCN3CC2CC2)C1O5` (stereo partly drawn) [Compound 2B]: in data set [5] (buffer pH 5.0, 32° C.), the half-life is approximately 56.3 days.
With `O=C1CC[C@@]2(O)[C@H]3Cc4ccc(O)c5c4[C@@]2(CCN3CC2CC2)[C@H]1O5` [NTX HCl, Naltrexone Hydrochloride, reference compound], the “pore visualization at day 4 (96 h)” value in data set [3] (MN followed by NTX HCl gel under occlusion) is reported as “cannot be visualized”.
As for `O=C(O)Cc1ccccc1Nc1c(Cl)cccc1Cl` [diclofenac, Diclofenac], the oral bioavailability in data set [6] was 0.55.
